Target: T1, human recombinant HDAC6 (Homo sapiens, UniProt Q9UBN7)
T1 construct: purchased Calbiochem 382180
T1 sequence (Q9UBN7 1-1215): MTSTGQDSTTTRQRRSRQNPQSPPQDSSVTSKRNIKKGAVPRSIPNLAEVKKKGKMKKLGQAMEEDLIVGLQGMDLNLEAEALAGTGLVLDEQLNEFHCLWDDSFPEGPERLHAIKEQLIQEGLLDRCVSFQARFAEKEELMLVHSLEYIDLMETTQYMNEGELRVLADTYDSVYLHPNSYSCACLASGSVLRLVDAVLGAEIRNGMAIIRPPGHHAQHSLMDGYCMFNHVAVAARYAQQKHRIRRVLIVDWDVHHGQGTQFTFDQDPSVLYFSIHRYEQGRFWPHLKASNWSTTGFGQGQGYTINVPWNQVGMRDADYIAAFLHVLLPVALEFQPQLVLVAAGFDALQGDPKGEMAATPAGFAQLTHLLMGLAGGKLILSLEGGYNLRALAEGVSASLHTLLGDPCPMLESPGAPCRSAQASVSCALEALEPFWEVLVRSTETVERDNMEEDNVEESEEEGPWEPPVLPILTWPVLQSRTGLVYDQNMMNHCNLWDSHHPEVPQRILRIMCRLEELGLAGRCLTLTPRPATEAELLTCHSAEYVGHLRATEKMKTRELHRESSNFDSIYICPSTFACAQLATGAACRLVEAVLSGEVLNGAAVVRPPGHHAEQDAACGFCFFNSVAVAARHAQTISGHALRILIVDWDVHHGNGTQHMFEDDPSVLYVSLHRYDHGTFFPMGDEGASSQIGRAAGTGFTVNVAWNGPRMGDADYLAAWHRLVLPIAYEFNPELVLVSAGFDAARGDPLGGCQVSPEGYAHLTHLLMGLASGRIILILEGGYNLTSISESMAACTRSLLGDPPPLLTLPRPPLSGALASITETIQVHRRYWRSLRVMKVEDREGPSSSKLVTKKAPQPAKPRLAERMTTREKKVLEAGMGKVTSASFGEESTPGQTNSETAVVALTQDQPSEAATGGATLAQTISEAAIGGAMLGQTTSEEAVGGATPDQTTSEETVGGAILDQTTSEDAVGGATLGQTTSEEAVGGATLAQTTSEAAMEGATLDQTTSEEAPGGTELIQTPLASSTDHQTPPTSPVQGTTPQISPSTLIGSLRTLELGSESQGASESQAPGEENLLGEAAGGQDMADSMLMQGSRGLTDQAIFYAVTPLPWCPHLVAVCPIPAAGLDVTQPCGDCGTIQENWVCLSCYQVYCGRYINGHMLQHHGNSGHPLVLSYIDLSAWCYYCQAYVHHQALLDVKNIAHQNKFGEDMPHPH
Experiment: HDAC6 enzyme activity inhibition assay (HDAC Fluorimetric Drug Discovery Kit)
Type: biochemical
Conditions: for HDAC6 selectivity (fold): HDAC6 over HDAC1; for IC50: human recombinant HDAC6, same protocol as HDAC1, read-out: HDAC6
In short: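 Human recombinant HDAC1 or HDAC6 (0.3 μg) reacted with 10 μM Fluor de Lys-SIRT1 substrate and 5-fold compound dilutions for 60 min at 30 °C. Developer II added for 30 min, fluorescence read at Ex 360/Em 460; IC50 calculated from the readings.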

Row | Structure (SMILES) | HDAC6 selectivity (fold) | IC50 [nM]
1 | O=C(N1CCOCC1)N(Cc1ccc(-c2nnc(C(F)(F)F)o2)cc1)c1cccnc1 [Compound 21427, N-(pyridin-3-yl)-N-(4-(5-(trifluoromethyl)-1,3,4-oxadiazol-2-yl)benzyl)morpholine-4-carboxamide] | 79 | 126
2 | O=C(N1CCOCC1)N(Cc1c(F)cc(-c2nnc(C(F)(F)F)o2)cc1F)c1ccccc1 [Compound 21431, N-(2,6-difluoro-4-(5-(trifluoromethyl)-1,3,4-oxadiazol-2-yl)benzyl)-N-phenylmorpholine-4-carboxamide] | 39 | 256
3 | O=C(N1CCOCC1)N(Cc1c(F)cc(-c2nnc(C(F)F)o2)cc1F)c1ccccc1 [Compound 21432, N-(4-(5-(difluoromethyl)-1,3,4-oxadiazol-2-yl)-2,6-difluorobenzyl)-N-phenylmorpholine-4-carboxamide] | 208 | 48
4 | Cc1ccc(N(Cc2ccc(-c3nnc(C(F)(F)F)o3)cc2)C(=O)N2CCS(=O)(=O)CC2)c(F)c1 [Compound 21434, N-(2-fluoro-4-methylphenyl)-N-(4-(5-(trifluoromethyl)-1,3,4-oxadiazol-2-yl)benzyl)thiomorpholine-4-carboxamide 1,1-dioxide] | 53 | 188
5 | COc1ccccc1N(Cc1ccc(-c2nnc(C(F)(F)F)o2)cc1)C(=O)N1CCS(=O)(=O)CC1 [Compound 21440, N-(2-methoxyphenyl)-N-(4-(5-(trifluoromethyl)-1,3,4-oxadiazol-2-yl)benzyl)thiomorpholine-4-carboxamide 1,1-dioxide] | 37 | 267
6 | O=C(N1CCS(=O)(=O)CC1)N(Cc1ccc(-c2nnc(C(F)F)o2)cc1)c1ccccc1F [Compound 21448, N-(4-(5-(difluoromethyl)-1,3,4-oxadiazol-2-yl)benzyl)-N-(2-fluorophenyl)thiomorpholine-4-carboxamide 1,1-dioxide] | 278 | 36
7 | O=C(N1CCS(=O)(=O)CC1)N(Cc1ccc(-c2nnc(C(F)(F)F)o2)cc1)c1ccccc1C(F)(F)F [Compound 21449, N-(4-(5-(trifluoromethyl)-1,3,4-oxadiazol-2-yl)benzyl)-N-(2-(trifluoromethyl)phenyl)thiomorpholine-4-carboxamide 1,1-dioxide] | 7 | 1530
8 | COc1ccc(N(Cc2ccc(-c3nnc(C(F)F)o3)cc2)C(=O)N2CCS(=O)(=O)CC2)cc1 [Compound 21453, N-(4-(5-(difluoromethyl)-1,3,4-oxadiazol-2-yl)benzyl)-N-(4-methoxyphenyl)thiomorpholine-4-carboxamide 1,1-dioxide] | 85 | 117
9 | COc1ccc(N(Cc2ccc(-c3nnc(C(F)(F)F)o3)cn2)C(=O)N2CCS(=O)(=O)CC2)cc1 [Compound 21454, N-(4-methoxyphenyl)-N-((5-(5-(trifluoromethyl)-1,3,4-oxadiazol-2-yl)pyridin-2-yl)methyl)thiomorpholine-4-carboxamide 1,1-dioxide] | 94 | 106

More lines, in order of falling IC50, values ahead:

Row | HDAC6 selectivity (fold) | IC50 [nM] | Structure (SMILES)
10 | 5 | 2080 | O=C(N1CCOCC1)N(Cc1ccc(-c2nnc(C(F)(F)F)o2)cc1Cl)c1ccccc1 [Compound 21429, N-(2-chloro-4-(5-(trifluoromethyl)-1,3,4-oxadiazol-2-yl)benzyl)-N-phenylmorpholine-4-carboxamide]
11 | 19 | 530 | O=C(N1CCS(=O)(=O)CC1)N(Cc1ccc(-c2nnc(C(F)F)o2)cc1)c1ccccc1C(F)(F)F [Compound 21450, N-(4-(5-(difluoromethyl)-1,3,4-oxadiazol-2-yl)benzyl)-N-(2-(trifluoromethyl)phenyl)thiomorpholine-4-carboxamide 1,1-dioxide]
12 | 20 | 489 | O=C(N1CCOCC1)N(Cc1ccc(-c2nnc(C(F)(F)F)o2)cc1)c1ccc(F)cc1 [Compound 21426, N-(4-fluorophenyl)-N-(4-(5-(trifluoromethyl)-1,3,4-oxadiazol-2-yl)benzyl)morpholine-4-carboxamide]
13 | 30 | 333 | Cc1ccccc1N(Cc1ccc(-c2nnc(C(F)(F)F)o2)cc1)C(=O)N1CCS(=O)(=O)CC1 [Compound 21451, N-(o-tolyl)-N-(4-(5-(trifluoromethyl)-1,3,4-oxadiazol-2-yl)benzyl)thiomorpholine-4-carboxamide 1,1-dioxide]
14 | 33 | 303 | Cc1ccc(N(Cc2ccc(-c3nnc(C(F)(F)F)o3)cc2)C(=O)N2CCS(=O)(=O)CC2)cc1 [Compound 21445, N-(p-tolyl)-N-(4-(5-(trifluoromethyl)-1,3,4-oxadiazol-2-yl)benzyl)thiomorpholine-4-carboxamide 1,1-dioxide]
15 | 57 | 175 | CS(=O)(=O)c1ccc(N(Cc2ccc(-c3nnc(C(F)F)o3)cc2)C(=O)N2CCOCC2)cc1 [Compound 21444, N-(4-(5-(difluoromethyl)-1,3,4-oxadiazol-2-yl)benzyl)-N-(4-(methylsulfonyl)phenyl)morpholine-4-carboxamide]
16 | 75 | 134 | O=C(N1CCOCC1)N(Cc1ccc(-c2nnc(C(F)(F)F)o2)cc1)c1ccccc1F [Compound 21428, N-(2-fluorophenyl)-N-(4-(5-(trifluoromethyl)-1,3,4-oxadiazol-2-yl)benzyl)morpholine-4-carboxamide]
17 | 77 | 130 | O=C(N1CCOCC1)N(Cc1ccc(-c2nnc(C(F)(F)F)o2)cc1)c1ncccn1 [Compound 21425, N-(pyrimidin-2-yl)-N-(4-(5-(trifluoromethyl)-1,3,4-oxadiazol-2-yl)benzyl)morpholine-4-carboxamide]
18 | 93 | 108 | Cc1ccccc1N(Cc1ccc(-c2nnc(C(F)F)o2)cc1)C(=O)N1CCS(=O)(=O)CC1 [Compound 21452, N-(4-(5-(difluoromethyl)-1,3,4-oxadiazol-2-yl)benzyl)-N-(o-tolyl)thiomorpholine-4-carboxamide 1,1-dioxide]
19 | 115 | 87 | Cc1ccc(N(Cc2ccc(-c3nnc(C(F)F)o3)cc2)C(=O)N2CCS(=O)(=O)CC2)cc1 [Compound 21446, N-(4-(5-(difluoromethyl)-1,3,4-oxadiazol-2-yl)benzyl)-N-(p-tolyl)thiomorpholine-4-carboxamide 1,1-dioxide]
20 | 172 | 58 | O=C(N1CCS(=O)(=O)CC1)N(Cc1ccc(-c2nnc(C(F)(F)F)o2)cc1)c1ccc(F)cc1F [Compound 21433, N-(2,4-difluorophenyl)-N-(4-(5-(trifluoromethyl)-1,3,4-oxadiazol-2-yl)benzyl)thiomorpholine-4-carboxamide 1,1-dioxide]
21 | 196 | 51 | O=C(N1CCS(=O)(=O)CC1)N(Cc1ccc(-c2nnc(C(F)(F)F)o2)cc1)c1ccccc1F [Compound 21447, N-(2-fluorophenyl)-N-(4-(5-(trifluoromethyl)-1,3,4-oxadiazol-2-yl)benzyl)thiomorpholine-4-carboxamide 1,1-dioxide]
